Measurements taken from PubChem BioAssay AID1259407 (Chemical Carcinogenesis Research Information System (CCRIS), 2018).
Activity calls are given as the source filed them. How the calls were made is not given here.

Test system: CCRIS mutagenicity, Ames/micronucleus/aberration tests
Assay: CCRIS mutagenicity studies
[1] = Test System: AMES SALMONELLA TYPHIMURIUM, Strain/Indicator: TA98, Metabolic Activation: NONE, Method: PREINCUBATION
[2] = Test System: AMES SALMONELLA TYPHIMURIUM, Strain/Indicator: TA100, Metabolic Activation: NONE, Method: PREINCUBATION
[3] = Test System: AMES SALMONELLA TYPHIMURIUM, Strain/Indicator: TA1535, Metabolic Activation: NONE, Method: PREINCUBATION
[4] = Test System: AMES SALMONELLA TYPHIMURIUM, Strain/Indicator: TA1537, Metabolic Activation: NONE, Method: PREINCUBATION

NC(=Nc1ccccc1)Nc1ccccc1
mutagenic call (Test System: AMES SALMONELLA TYPHIMURIUM, Strain/Indicator: TA98, Metabolic Activation: HAMSTER, LIVER, S-9, AROCLOR 1254, Method: STANDARD PLATE): active; positive | mutagenic call [1]: inactive; negative | mutagenic call (Test System: AMES SALMONELLA TYPHIMURIUM, Strain/Indicator: TA98, Metabolic Activation: NONE, Method: STANDARD PLATE): inactive; negative | mutagenic call (Test System: AMES SALMONELLA TYPHIMURIUM, Strain/Indicator: TA98, Metabolic Activation: RAT LIVER S-9, PHENOBARBITAL AND BETA-NAPHTHOFLAVONE, Method: PREINCUBATION): inactive; negative | mutagenic call (Test System: AMES SALMONELLA TYPHIMURIUM, Strain/Indicator: TA98, Metabolic Activation: RAT, LIVER, S-9, AROCLOR 1254, Method: STANDARD PLATE): inactive; negative | mutagenic call (Test System: AMES SALMONELLA TYPHIMURIUM, Strain/Indicator: TA98, Metabolic Activation: S-9, Method: STANDARD PLATE): inactive; negative | mutagenic call (Test System: AMES SALMONELLA TYPHIMURIUM, Strain/Indicator: TA100, Metabolic Activation: HAMSTER, LIVER, S-9, AROCLOR 1254, Method: STANDARD PLATE): active; positive | mutagenic call [2]: inactive; negative | mutagenic call (Test System: AMES SALMONELLA TYPHIMURIUM, Strain/Indicator: TA100, Metabolic Activation: NONE, Method: STANDARD PLATE): inactive; negative | mutagenic call (Test System: AMES SALMONELLA TYPHIMURIUM, Strain/Indicator: TA100, Metabolic Activation: RAT LIVER S-9, PHENOBARBITAL AND BETA-NAPHTHOFLAVONE, Method: PREINCUBATION): inactive; negative | mutagenic call (Test System: AMES SALMONELLA TYPHIMURIUM, Strain/Indicator: TA100, Metabolic Activation: RAT, LIVER, S-9, AROCLOR 1254, Method: STANDARD PLATE): inactive; negative | mutagenic call (Test System: AMES SALMONELLA TYPHIMURIUM, Strain/Indicator: TA100, Metabolic Activation: S-9, Method: STANDARD PLATE): inactive; negative | mutagenic call (Test System: AMES SALMONELLA TYPHIMURIUM, Strain/Indicator: TA1535, Metabolic Activation: HAMSTER, LIVER, S-9, AROCLOR 1254, Method: STANDARD PLATE): inactive; negative | mutagenic call [3]: inactive; negative | mutagenic call (Test System: AMES SALMONELLA TYPHIMURIUM, Strain/Indicator: TA1535, Metabolic Activation: NONE, Method: STANDARD PLATE): inactive; negative | mutagenic call (Test System: AMES SALMONELLA TYPHIMURIUM, Strain/Indicator: TA1535, Metabolic Activation: RAT LIVER S-9, PHENOBARBITAL AND BETA-NAPHTHOFLAVONE, Method: PREINCUBATION): inactive; negative | mutagenic call (Test System: AMES SALMONELLA TYPHIMURIUM, Strain/Indicator: TA1535, Metabolic Activation: RAT, LIVER, S-9, AROCLOR 1254, Method: STANDARD PLATE): inactive; negative | mutagenic call (Test System: AMES SALMONELLA TYPHIMURIUM, Strain/Indicator: TA1537, Metabolic Activation: HAMSTER, LIVER, S-9, AROCLOR 1254, Method: STANDARD PLATE): inactive; negative | mutagenic call [4]: inactive; negative | mutagenic call (Test System: AMES SALMONELLA TYPHIMURIUM, Strain/Indicator: TA1537, Metabolic Activation: RAT LIVER S-9, PHENOBARBITAL AND BETA-NAPHTHOFLAVONE, Method: PREINCUBATION): inactive; negative | mutagenic call (Test System: AMES SALMONELLA TYPHIMURIUM, Strain/Indicator: TA1537, Metabolic Activation: RAT, LIVER, S-9, AROCLOR 1254, Method: STANDARD PLATE): inactive; negative | mutagenic call (Test System: AMES SALMONELLA TYPHIMURIUM, Strain/Indicator: TA1538, Metabolic Activation: HAMSTER, LIVER, S-9, AROCLOR 1254, Method: STANDARD PLATE): inactive; negative | mutagenic call (Test System: AMES SALMONELLA TYPHIMURIUM, Strain/Indicator: TA1538, Metabolic Activation: NONE, Method: PREINCUBATION): inactive; negative | mutagenic call (Test System: AMES SALMONELLA TYPHIMURIUM, Strain/Indicator: TA1538, Metabolic Activation: NONE, Method: STANDARD PLATE): inactive; negative | mutagenic call (Test System: AMES SALMONELLA TYPHIMURIUM, Strain/Indicator: TA1538, Metabolic Activation: RAT LIVER S-9, PHENOBARBITAL AND BETA-NAPHTHOFLAVONE, Method: PREINCUBATION): inactive; negative | mutagenic call (Test System: AMES SALMONELLA TYPHIMURIUM, Strain/Indicator: TA1538, Metabolic Activation: RAT, LIVER, S-9, AROCLOR 1254, Method: STANDARD PLATE): inactive; negative | mutagenic call (Test System: E.COLI, Strain/Indicator: WP2UVRA, Metabolic Activation: NONE, Method: PREINCUBATION): inactive; negative | mutagenic call (Test System: E.COLI, Strain/Indicator: WP2UVRA, Metabolic Activation: RAT LIVER S-9, PHENOBARBITAL AND BETA-NAPHTHOFLAVONE, Method: PREINCUBATION): inactive; negative | mutagenic call (Test System: MOUSE LYMPHOMA, Strain/Indicator: L5178Y (TK+/TK-), Metabolic Activation: NONE, Method: SUSPENSION/PLATE): inactive; negative. reevaluation of results: negative | mutagenic call (Test System: MOUSE LYMPHOMA, Strain/Indicator: L5178Y (TK+/TK-), Metabolic Activation: RAT, LIVER, S-9, AROCLOR 1254, Method: SUSPENSION/PLATE): inactive; negative. reevaluation of results: inconclusive

Cc1c(F)c(N2CCNC(C)C2)cc2c1c(=O)c(C(=O)O)cn2C1CC1 (configuration not stated)
mutagenic call [1]: inactive; negative | mutagenic call (Test System: AMES SALMONELLA TYPHIMURIUM, Strain/Indicator: TA98, Metabolic Activation: RAT, LIVER, S-9, PHENOBARBITAL AND 5,6-BENZOFLAVONE, Method: PREINCUBATION): inactive; negative | mutagenic call [2]: inactive; negative | mutagenic call (Test System: AMES SALMONELLA TYPHIMURIUM, Strain/Indicator: TA100, Metabolic Activation: RAT, LIVER, S-9, PHENOBARBITAL AND 5,6-BENZOFLAVONE, Method: PREINCUBATION): inactive; negative | mutagenic call [3]: inactive; negative | mutagenic call (Test System: AMES SALMONELLA TYPHIMURIUM, Strain/Indicator: TA1535, Metabolic Activation: RAT, LIVER, S-9, PHENOBARBITAL AND 5,6-BENZOFLAVONE, Method: PREINCUBATION): inactive; negative | mutagenic call [4]: inactive; negative | mutagenic call (Test System: AMES SALMONELLA TYPHIMURIUM, Strain/Indicator: TA1537, Metabolic Activation: RAT, LIVER, S-9, PHENOBARBITAL AND 5,6-BENZOFLAVONE, Method: PREINCUBATION): inactive; negative | mutagenic call (Test System: CHINESE HAMSTER V-79, Strain/Indicator: V-79 (HGPRT)/6-THIOGUANINE, Metabolic Activation: NONE): inactive; negative | mutagenic call (Test System: CHINESE HAMSTER V-79, Strain/Indicator: V-79 (HGPRT)/6-THIOGUANINE, Metabolic Activation: RAT, LIVER, S-9, PHENOBARBITAL AND 5,6-BENZOFLAVONE): inactive; negative | mutagenic call (Test System: E. COLI, Strain/Indicator: WP2 UVRA, Metabolic Activation: NONE, Method: PREINCUBATION): inactive; negative | mutagenic call (Test System: E. COLI, Strain/Indicator: WP2 UVRA, Metabolic Activation: RAT, LIVER, S-9, PHENOBARBITAL AND 5,6-BENZOFLAVONE, Method: PREINCUBATION): inactive; negative
